We go through one compound from patent publication US11149047B2, “Aryl imidazoles for treatment of cancer” (Aptose Biosciences Inc., priority 2017, dated 2021).

For assay [1], the system named is phosphorylated ATM, γH2AX, cleaved PARP in Raji cells. Briefly: Western blot of phospho-ATM, γH2AX and cleaved PARP. The class given is cell-based, human. The settings on record: 0.5 μM. How it is done: (§1) The structure of COMPOUND I is similar to drugs that bind to quadruplex structures in DNA which results in strand breaks; this led to the investigation of whether COMPOUND I caused damage to DNA. The parental Raji cells were treated with 0.5 μM COMPOUND I for increasing periods of time and induction of DNA damage was assessed by accumulation of the phosphorylated forms of ATM and γH2AX measured by Western blot analysis. […] Raji cells have very small nuclei making it difficult to quantify the formation of γH2AX foci, so the human ovarian carcinoma cell line CAOV3 was used for this purpose. […] Evidence of DNA damage was further strengthened by the results of the neutral comet assay which mainly detects DNA double strand breaks (FIG. 2D).
In general terms: Immunoblotting shows a protein as a band on a membrane.

Assay [2] has as its system phospho-ATM, phospho-γH2AX, PARP cleavage in Raji/COMPOUND IR cells. The assay is described as above. The class given is cell-based, human. As to conditions: 0.5 μM, 24 h. How it is done:
Only when the Raji/COMPOUND IR cells were treated with at least 3 times as much COMPOUND I did the intracellular content of Fe(COMPOUND I)3 finally reach a level similar to that in the sensitive cells (FIG. 4D).

The test system of assay [3] is KLF4 and CDKN1A expression in AML cell lines. Briefly: qRT-PCR of KLF4 and CDKN1A (p21) expression. The class given is cell-based. How it is done: Cells were treated with vehicle or COMPOUND I at various concentrations for 24 hours or at a single concentration for 1, 3, 6, 12, and 24 hours before harvesting. Cells were lysed by QiaShredder columns (QIAGEN, catalog #79656), total RNA was isolated using QIAGEN RNeasy Plus Mini Kit (catalog #74134), and cDNA was synthesized utilizing Transcriptor Universal cDNA master mix (Roche, catalog #05893151001) and then used for qRT-PCR analysis using FastStart essential DNA probes master mix (Roche, catalog #06402682001) and Roche LightCycler96. Primer probe pairs were purchased from IDT (Table 5). Expression was calculated as fold change over vehicle treated samples after normalizing to GAPDH […].
Previous studies reported upregulation of KLF4 and CDKN1A expression as a potential mechanism of APT0-COMPOUND I activity in tumors. […] The upregulation of CDKN1A mRNA increased with duration of exposure in all AML cell lines tested (FIGS. 15D and 15E). At later time points, CDKN1A expression began to decrease, likely due to increasing cell death. Induction of CDKN1A expression is typically associated with a subsequent G0-G1, cell-cycle arrest, which was observed following COMPOUND I treatment of solid tumor lines.

In the next assay the test system is MV4-11. Briefly: Cytotoxicity study (MTS). The class given is cell-based. As to conditions: Homo sapiens. How it is done:
EOL-1, GRANTA-519, Jeko-1, Jurkat, Molm-13, NOMO-1, SKM-1, and SU-DHL-6 were obtained from Leibniz-Institut DSMZ. HL-60, KG-1, Mino, MV4-11, Raji, and THP-1 were obtained from ATCC. HEL92.1.7 were obtained from the European Collection of Authenticated Cell Cultures and Ramos cells were a gift from Dr. M. Andreeff (MD Anderson Cancer Center, Houston, Tex.). All cells were cultured in complete media as per the manufacturer's instructions. Early passage cells were collected and frozen within 1 month of receipt from the manufacturer. All experiments were performed on early passage cells within 6 weeks of thawing. MycoScope Mycoplasma Detection Kit (Genlantis catalog #MY01050) was used to screen for potential contamination every 6 months. Peripheral blood mononuclear cells (PBMC) were isolated from fresh healthy donor blood using Ficoll-Paque PLUS (GE Healthcare, catalog #17-1440-02). For synthesis of COMPOUND I free base, 10-phenanthroline-5,6-dione (1.2 equivalents), acetic acid (22 volumes), 2-methyl-5-fluoroindole-3-carboxaldehyde (1.0 equivalents), and ammonium acetate (15 equivalents) were reacted under medium agitation while heated at 95±5° C. for 3 to 7 hours. The reaction was cooled to between 20° C. and 25° C., filtered, rinsed with acetic acid and ethanol, and dried with N2 purge, followed by a wash with 2:1 ethanol:water at 65° C. for 4 hours, cooling to 20° C. to 25° C., filtration, rinsing with 2:1 ethanol:water and EtOAc, and then dried with N2 purge. The purity by HPLC was 99.5%, and the structural identity was confirmed by FT-IR, ^1HNMR, ^13C NMR, and LC/MS. For Fe(COMPOUND I)3 synthesis, five molar equivalents of ferrous ion FeSO4 in water was added to COMPOUND I dissolved in ethanol. The deep red precipitate produced, Fe(COMPOUND I)3, was collected and dissolved in DMSO and characterized by HPLC and mass spectrometry as >95% pure. CX-5461 (7) was purchased from MedChem Express (catalog #HY-13323).
[…] Cell viability was measured using CellTiter 96 AQueous one solution (MTS) cell proliferation assay (Promega, catalog #G3581), and IC50 values were calculated using GraphPad Prism 7 software.

In assay [4] the test system is DNA double strand breaks in CAOV3 cells. The assay is described as follows: Neutral comet assay. The class given is cell-based, human. How it is done: Comet assay kits were purchased from Trevigen (Gaithersburg, Md.) and neutral comet assay was performed according to the manufacturer's instructions. Images were collected with a Keyence Fluorescent Microscope (Keyence America, Itasca, Ill.) and quantitated with OpenComet software.
as §1

Structures are written as SMILES. Read-outs that look alike come from different tables or passages of the source.

On to `Cc1[nH]c2ccc(F)cc2c1-c1nc2c3cccnc3c3ncccc3c2[nH]1` [COMPOUND I, 2-(5-fluoro-2-methyl-1H-indol-3-yl)-1H-imidazo[4,5-f][1,10]phenanthroline], for which the “cleavage of PARP” value in assay [1] (time course) is “detected starting at 8 h”. Further, the “phosphorylated ATM and γH2AX accumulation” value in assay [1] (up to 24 h) is “clear increase in phosphorylated ATM and γH2AX starting at 6 h”. The “phospho-ATM, phospho-γH2AX, PARP cleavage” value in assay [2] was “no increase in phospho-ATM or phospho-γH2AX, and no detectable PARP cleavage”. Moreover, the “AML cell lines with upregulated KLF4 expression” value in assay [3] (24 hr treatment, FIG. 15A) is on record as 4 of 6. For the same compound, the “CDKN1A (p21) expression” value in assay [3] (FIGS. 15B and 15C) is “induced in all AML cell lines in a concentration-dependent manner”. Further, the IC50 – broadly, the midpoint of a concentration-inhibition curve – in the assay on MV4-11 (MV4-11, 120 h, AML, 5 days, read-out: IC50 (μM) Mean) was 0.24 µM; in the assay with MV4-11 (MV4-11, exposure 48 hours, read-out: IC50), 0.47 µM; in the assay on MV4-11 (MV4-11, exposure 72 hours, read-out: IC50) it was 0.4 µM; with MV4-11 (MV4-11, exposure 120 hours, read-out: IC50) it was 0.24 µM. Moreover, the “tail DNA vs DMSO” value in assay [4] (0.5 μM, 6 h) was “no increase in tail DNA”. The “DNA in comet tails” value in assay [4] (6 h treatment then 18 h drug free media (pulse-chase)) is “significantly more DNA in the comet tails”.
